Source: ChEMBL document CHEMBL4699575, “Discovery of First-In-Class Potent and Selective Tropomyosin Receptor Kinase Degraders” (J Med Chem, 2020)
pIC50, pKd: −log10 of the molar value. Values belong to the compound of their own block, whether it stands above or below them. The source made the active and inactive calls. No cut-off for these calls is given here.

Legend:
KM12 [1] = assay: Induction of CRBN-mediated TMP3-TRKA (unknown origin) fusion protein degradation expressed in human KM12 cells at 10 nM for 6 hrs by immunoblot analysis relative to control; type: cell-based
KM12 [2] = assay: Induction of CRBN-mediated TMP3-TRKA (unknown origin) fusion protein degradation expressed in human KM12 cells at 0.1 nM for 6 hrs by immunoblot analysis relative to control; type: cell-based
KM12 [3] = assay: Induction of CRBN-mediated TMP3-TRKA (unknown origin) fusion protein degradation expressed in human KM12 cells at 1 nM for 6 hrs by immunoblot analysis relative to control; type: cell-based
KM12 [4] = assay: Induction of CRBN-mediated TMP3-TRKA (unknown origin) fusion protein degradation expressed in human KM12 cells assessed as inhibition of PLC-gamma1 phosphorylation at 10 nM for 4 hrs by immunoblot analysis; type: cell-based
[5] = biological target: T1, Protein cereblon/High affinity nerve growth factor receptor (Homo sapiens, UniProt P04629+Q96SW2); assay: Induction of CRBN-mediated TRKA degradation in human HEL cells for 6 hrs by immunoblot analysis; type: cell-based
Target sequence in this assay (P04629 whole entry, the tested form may be a part): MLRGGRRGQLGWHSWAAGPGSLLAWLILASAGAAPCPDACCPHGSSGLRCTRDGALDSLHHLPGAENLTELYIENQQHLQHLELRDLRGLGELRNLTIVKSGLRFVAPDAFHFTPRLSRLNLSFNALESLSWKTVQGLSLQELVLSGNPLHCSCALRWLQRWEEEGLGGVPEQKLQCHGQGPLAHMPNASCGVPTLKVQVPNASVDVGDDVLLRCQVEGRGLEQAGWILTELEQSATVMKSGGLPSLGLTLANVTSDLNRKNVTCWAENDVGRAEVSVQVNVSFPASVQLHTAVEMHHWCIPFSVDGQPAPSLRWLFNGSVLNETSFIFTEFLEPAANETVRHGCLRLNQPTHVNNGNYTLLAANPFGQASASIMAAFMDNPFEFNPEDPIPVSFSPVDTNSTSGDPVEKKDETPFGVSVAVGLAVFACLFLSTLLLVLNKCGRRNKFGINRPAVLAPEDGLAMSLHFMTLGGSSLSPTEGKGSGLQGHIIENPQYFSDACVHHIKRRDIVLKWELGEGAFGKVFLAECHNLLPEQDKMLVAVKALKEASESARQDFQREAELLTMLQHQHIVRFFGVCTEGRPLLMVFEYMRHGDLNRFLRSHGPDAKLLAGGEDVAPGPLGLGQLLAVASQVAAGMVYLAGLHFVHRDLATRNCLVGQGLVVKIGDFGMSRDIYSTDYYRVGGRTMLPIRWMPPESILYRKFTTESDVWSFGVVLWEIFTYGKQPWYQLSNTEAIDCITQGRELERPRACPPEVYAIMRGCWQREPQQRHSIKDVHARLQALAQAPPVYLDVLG
Target sequence in this assay (Q96SW2 whole entry, the tested form may be a part): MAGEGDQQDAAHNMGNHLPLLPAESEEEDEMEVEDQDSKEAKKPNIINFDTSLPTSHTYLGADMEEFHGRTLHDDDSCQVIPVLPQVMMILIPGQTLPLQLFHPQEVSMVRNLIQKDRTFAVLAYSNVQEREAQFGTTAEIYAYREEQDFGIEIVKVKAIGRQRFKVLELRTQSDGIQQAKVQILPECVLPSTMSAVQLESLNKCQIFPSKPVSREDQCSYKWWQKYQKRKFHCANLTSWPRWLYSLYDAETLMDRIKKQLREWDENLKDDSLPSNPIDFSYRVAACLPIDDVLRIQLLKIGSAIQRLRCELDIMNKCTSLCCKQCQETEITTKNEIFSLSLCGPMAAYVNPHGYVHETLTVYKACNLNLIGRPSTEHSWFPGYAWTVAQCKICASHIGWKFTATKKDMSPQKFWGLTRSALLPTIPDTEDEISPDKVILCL

KM12 [6] = assay: Induction of CRBN-mediated TMP3-TRKA (unknown origin) fusion protein degradation expressed in human KM12 cells at 10 nM for 6 hrs pretreated with bortezomib by immunoblot analysis; type: cell-based
[7] = biological target: BDNF/NT-3 growth factors receptor (Homo sapiens, UniProt Q16620); assay: Binding affinity to human partial length TRKB expressed in mammalian expression system by kinomescan method
KM12 [8] = assay: (§1) Induction of CRBN-mediated TMP3-TRKA (unknown origin) fusion protein degradation expressed in human KM12 cells assessed as inhibition of PLC-gamma1 phosphorylation for 6 hrs by immunoblot analysis; type: cell-based
[9] = as §1; type: cell-based; settings: KM12, 6 h
KM12 [10] = assay: Induction of CRBN-mediated TMP3-TRKA (unknown origin) fusion protein degradation expressed in human KM12 cells at 10 nM for 0.3 hrs by immunoblot analysis; type: cell-based
KM12 [11] = assay: Effect on GSPT1 expression in human KM12 cells at 0.04 to 30 nM for 6 hrs by immunoblot analysis; type: functional, cell-based; settings: dose nM 0.04-30, time 6.0 hrs
KM12 [12] = assay: Induction of CRBN-mediated TMP3-TRKA (unknown origin) fusion protein degradation expressed in human KM12 cells assessed as inhibition of PLC-gamma1 phosphorylation at 10 nM for 0.3 hrs by immunoblot analysis; type: cell-based
KM12 [13] = assay: Antiproliferative activity against human KM12 cells assessed as reduction in cell viability measured after 3 days by Celltiter-Glo assay; type: functional, cell-based; settings: KM12, 72 h
KM12 [14] = assay: Induction of CRBN-mediated AGBL4-TRKB (unknown origin) fusion protein degradation expressed in human KM12 cells at 0.7 to 500 nM for 6 hrs by immunoblot analysis; type: cell-based; settings: dose nM 0.7-500, time 6.0 hrs
KM12 [15] = assay: Induction of CRBN-mediated TMP3-TRKA (unknown origin) fusion protein degradation expressed in human KM12 cells at 10 nM for 4 hrs by immunoblot analysis; type: cell-based
KM12 [16] = assay: Induction of CRBN-mediated TMP3-TRKA (unknown origin) fusion protein degradation expressed in human KM12 cells at 10 nM for 6 hrs pretreated with MG-132 by immunoblot analysis; type: cell-based
KM12 [17] = assay: Induction of CRBN-mediated ETV6-TRKC (unknown origin) fusion protein degradation expressed in human KM12 cells at 0.7 to 500 nM for 6 hrs by immunoblot analysis; type: cell-based; settings: dose nM 0.7-500, time 6.0 hrs
[18] = Binding affinity to human partial length TRKC expressed in mammalian expression system by kinomescan method
KM12 [19] = assay: Induction of CRBN-mediated TMP3-TRKA (unknown origin) fusion protein degradation expressed in human KM12 cells at 10 nM for 6 hrs pretreated with pomalidomide by immunoblot analysis; type: cell-based
KM12 [20] = assay: Induction of CRBN-mediated TMP3-TRKA (unknown origin) fusion protein degradation expressed in human KM12 cells at 10 nM for 6 hrs pretreated with MLN4924 by immunoblot analysis; type: cell-based
[21] = Cmax in ICR mouse at 10 mg/kg, ip measured for 1 hr; type: ADME, organism-based; design: route intraperitoneal, dose 10 mg/kg, time 1 hrs; settings: in vivo
[22] = Plasma concentration in ICR mouse at 10 mg/kg, ip measured at 8 hrs; type: ADME, organism-based
[23] = biological target: High affinity nerve growth factor receptor (Homo sapiens, UniProt P04629); assay: Binding affinity to human partial length TRKA expressed in mammalian expression system by kinomescan method
KM12 [24] = assay: Induction of CRBN-mediated TMP3-TRKA (unknown origin) fusion protein degradation expressed in human KM12 cells at 30 nM for 6 hrs by immunoblot analysis; type: cell-based
[25] = Induction of CRBN-mediated TMP3-TRKA (unknown origin) fusion protein degradation expressed in human KM12 cells for 6 hrs by immunoblot analysis; type: cell-based; settings: KM12, 6 h
[26] = biological target: T1, Protein cereblon/High affinity nerve growth factor receptor; assay: Induction of CRBN-mediated TRKA degradation in human HEL cells at 30 nM for 6 hrs by immunoblot analysis; type: cell-based
Target sequence in this assay (P04629 33-796 limits assumed): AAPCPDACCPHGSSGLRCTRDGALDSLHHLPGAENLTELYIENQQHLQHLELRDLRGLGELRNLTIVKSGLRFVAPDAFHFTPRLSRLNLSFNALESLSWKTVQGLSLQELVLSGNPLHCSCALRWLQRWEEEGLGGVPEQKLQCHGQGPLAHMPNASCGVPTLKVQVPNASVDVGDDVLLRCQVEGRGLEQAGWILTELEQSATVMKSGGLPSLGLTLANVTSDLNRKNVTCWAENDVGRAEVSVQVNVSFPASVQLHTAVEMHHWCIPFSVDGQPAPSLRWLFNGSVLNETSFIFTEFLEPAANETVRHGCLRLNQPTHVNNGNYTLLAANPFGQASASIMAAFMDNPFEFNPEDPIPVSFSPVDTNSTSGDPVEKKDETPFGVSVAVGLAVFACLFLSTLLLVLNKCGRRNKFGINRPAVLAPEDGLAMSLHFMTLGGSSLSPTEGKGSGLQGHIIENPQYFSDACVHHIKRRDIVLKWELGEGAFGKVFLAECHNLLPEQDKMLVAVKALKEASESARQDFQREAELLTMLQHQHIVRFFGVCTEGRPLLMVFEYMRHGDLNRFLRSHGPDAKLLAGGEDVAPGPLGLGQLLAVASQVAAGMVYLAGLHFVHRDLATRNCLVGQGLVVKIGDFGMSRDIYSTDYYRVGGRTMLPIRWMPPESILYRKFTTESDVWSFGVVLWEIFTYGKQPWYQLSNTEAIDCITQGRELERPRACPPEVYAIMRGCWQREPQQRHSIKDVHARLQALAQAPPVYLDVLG
Target sequence in this assay (Q96SW2 whole entry partner, the tested form may be a part): as the sequence (Q96SW2 whole entry, the tested form may be a part) above

KM12 [27] = assay: Effect on GSPT1 expression in human KM12 cells at 30 nM for 6 hrs by immunoblot analysis; type: functional, cell-based
[28] = biological target: T2, Tropomyosin alpha-3 chain/High affinity nerve growth factor receptor (Homo sapiens) (UniProt P04629+P06753); assay: Induction of TMP3-TRKA (unknown origin) fusion protein degradation expressed in human KM12 cells transfected with siCRBN-2 at 0.1 to 10 nM for 6 hrs by immunoblot analysis; type: cell-based; settings: dose nM 0.1-10, time 6.0 hrs
[29] = Half life in ICR mouse at 10 mg/kg, ip measured upto 8 hrs; type: ADME, organism-based; settings: in vivo
[30] = biological target: T2, Tropomyosin alpha-3 chain/High affinity nerve growth factor receptor (Homo sapiens); assay: Induction of TMP3-TRKA (unknown origin) fusion protein degradation expressed in human KM12 cells transfected with siCRBN-1 at 0.1 to 10 nM for 6 hrs by immunoblot analysis; type: cell-based; settings: dose nM 0.1-10, time 6.0 hrs

High affinity nerve growth factor receptor, sequence (P04629 whole entry, the tested form may be a part): as the sequence (P04629 whole entry, the tested form may be a part) above
BDNF/NT-3 growth factors receptor, sequence (Q16620 whole entry, the tested form may be a part): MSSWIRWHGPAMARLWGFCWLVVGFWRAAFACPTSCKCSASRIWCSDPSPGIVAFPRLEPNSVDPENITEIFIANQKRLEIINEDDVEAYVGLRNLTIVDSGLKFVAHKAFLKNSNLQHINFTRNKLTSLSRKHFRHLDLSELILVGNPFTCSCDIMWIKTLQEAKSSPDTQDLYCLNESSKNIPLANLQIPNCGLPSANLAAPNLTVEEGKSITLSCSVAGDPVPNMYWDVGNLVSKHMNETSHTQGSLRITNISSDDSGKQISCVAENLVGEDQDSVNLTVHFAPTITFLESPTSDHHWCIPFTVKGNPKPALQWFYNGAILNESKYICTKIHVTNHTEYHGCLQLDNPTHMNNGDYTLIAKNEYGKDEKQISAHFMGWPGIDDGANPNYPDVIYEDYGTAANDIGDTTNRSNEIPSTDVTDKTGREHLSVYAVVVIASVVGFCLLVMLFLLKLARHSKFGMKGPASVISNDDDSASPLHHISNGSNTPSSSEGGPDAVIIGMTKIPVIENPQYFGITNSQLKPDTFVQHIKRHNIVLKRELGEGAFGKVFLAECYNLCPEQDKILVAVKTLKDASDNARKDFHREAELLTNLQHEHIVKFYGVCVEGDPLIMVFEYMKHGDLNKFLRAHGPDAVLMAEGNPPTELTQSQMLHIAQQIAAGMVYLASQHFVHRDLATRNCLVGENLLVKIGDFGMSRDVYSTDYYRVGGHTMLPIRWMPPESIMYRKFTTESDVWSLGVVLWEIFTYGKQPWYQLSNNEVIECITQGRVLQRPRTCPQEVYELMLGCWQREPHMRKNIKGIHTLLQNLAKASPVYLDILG
T2 sequence (P04629 whole entry, looked up, the tested form may be a part): as the sequence (P04629 whole entry, the tested form may be a part) above
T2 sequence (P06753 whole entry, looked up, the tested form may be a part): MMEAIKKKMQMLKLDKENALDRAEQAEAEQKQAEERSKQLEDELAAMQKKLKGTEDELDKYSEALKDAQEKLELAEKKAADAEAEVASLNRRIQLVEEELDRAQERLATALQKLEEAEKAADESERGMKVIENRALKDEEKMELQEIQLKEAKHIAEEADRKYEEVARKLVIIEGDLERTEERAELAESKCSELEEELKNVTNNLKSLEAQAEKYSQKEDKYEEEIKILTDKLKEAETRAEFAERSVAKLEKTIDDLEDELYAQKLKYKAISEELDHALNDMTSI

SMILES: O=C1CCC(N2C(=O)c3cccc(NCCCCCCCC(=O)N4CCN(c5cccc(-c6cnc7ccc(N8CCC[C@@H]8c8cccc(F)c8)nn67)n5)CC4)c3C2=O)C(=O)N1 (some centres undefined)
Activity (KM12 [1]): 83%
Activity (KM12 [2]): 20%
Activity (KM12 [3]): 21%

SMILES: O=C1CCC(N2C(=O)c3cccc(NCC(=O)N4CCN(c5cccc(-c6cnc7ccc(N8CCC[C@@H]8c8cccc(F)c8)nn67)n5)CC4)c3C2=O)C(=O)N1 (some centres undefined)
Activity (KM12 [1]): 93%
Activity (KM12 [2]): 15%
Activity (KM12 [3]): 45%

DC50 [5]: 2.23 nM
pKd [7]: 7.55
pIC50 [9]: 7.52
pKd [18]: 8.38
Cmax [21]: 1640 nM
concentration at 8 h [22]: 12.4 nM
pKd [23]: 9.00
DC50 [25]: 0.36 nM
SMILES: O=C1CCC(N2C(=O)c3cccc(NCCOCCC(=O)N4CCN(c5cccc(-c6cnc7ccc(N8CCC[C@@H]8c8cccc(F)c8)nn67)n5)CC4)c3C2=O)C(=O)N1 (some centres undefined)
inhibition (KM12 [4]): Active
Activity (KM12 [1]): 96%
Activity (KM12 [6]): inactive
Activity (KM12 [2]): 46%
Activity (KM12 [3]): 82%
inhibition (KM12 [8]): Dose-dependent effect
Activity (KM12 [10]): Active
Activity (KM12 [11]): inactive
inhibition (KM12 [12]): Active
pIC50 (KM12 [13]): 7.28
Activity (KM12 [14]): Active
Activity (KM12 [15]): Active
Activity (KM12 [16]): inactive
Activity (KM12 [17]): Active
Activity (KM12 [19]): inactive
Activity (KM12 [20]): inactive
Activity (KM12 [24]): Active

Activity [26]: inactive
pKd [7]: 6.73
pKd [18]: 7.62
pKd [23]: 8.54
SMILES: CN1C(=O)CCC(N2C(=O)c3cccc(NCCCCCC(=O)N4CCN(c5cccc(-c6cnc7ccc(N8CCC[C@@H]8c8cccc(F)c8)nn67)n5)CC4)c3C2=O)C1=O (some centres undefined)
pIC50 (KM12 [13]): 8.54
Activity (KM12 [27]): inactive

SMILES: O=C1CCC(N2C(=O)c3cccc(NCCOCCOCCOCCC(=O)N4CCN(c5cccc(-c6cnc7ccc(N8CCC[C@@H]8c8cccc(F)c8)nn67)n5)CC4)c3C2=O)C(=O)N1 (some centres undefined)
Activity (KM12 [1]): 86%
Activity (KM12 [2]): 22%
Activity (KM12 [3]): 28%

SMILES: O=C1CCC(N2C(=O)c3cccc(NCCCCCCC(=O)N4CCN(c5cccc(-c6cnc7ccc(N8CCC[C@@H]8c8cccc(F)c8)nn67)n5)CC4)c3C2=O)C(=O)N1 (some centres undefined)
Activity (KM12 [1]): 90%
Activity (KM12 [2]): 21%
Activity (KM12 [3]): 23%

SMILES: O=C1CCC(N2C(=O)c3cccc(NCCOCCOCCC(=O)N4CCN(c5cccc(-c6cnc7ccc(N8CCC[C@@H]8c8cccc(F)c8)nn67)n5)CC4)c3C2=O)C(=O)N1 (some centres undefined)
Activity (KM12 [1]): 95%
Activity (KM12 [2]): 30%
Activity (KM12 [3]): 56%

DC50 [5]: 1.26 nM
pKd [7]: 6.95
Activity [28]: inactive
pIC50 [9]: 7.52
half-life [29]: 54 min
Activity [30]: inactive
pKd [18]: 7.74
Cmax [21]: 2050 nM
concentration at 8 h [22]: 14.8 nM
pKd [23]: 8.68
DC50 [25]: 0.48 nM
SMILES: O=C1CCC(N2C(=O)c3cccc(NCCCCCC(=O)N4CCN(c5cccc(-c6cnc7ccc(N8CCC[C@@H]8c8cccc(F)c8)nn67)n5)CC4)c3C2=O)C(=O)N1 (some centres undefined)
inhibition (KM12 [4]): Active
Activity (KM12 [1]): 96%
Activity (KM12 [6]): inactive
Activity (KM12 [2]): 18%
Activity (KM12 [3]): 65%
inhibition (KM12 [8]): Dose-dependent effect
Activity (KM12 [10]): Active
Activity (KM12 [11]): inactive
inhibition (KM12 [12]): Active
pIC50 (KM12 [13]): 8.27
Activity (KM12 [14]): Active
Activity (KM12 [15]): Active
Activity (KM12 [16]): inactive
Activity (KM12 [17]): Active
Activity (KM12 [19]): inactive
Activity (KM12 [20]): inactive
Activity (KM12 [24]): Active

SMILES: O=C1CCC(N2C(=O)c3cccc(NCCOCCOCCOCCOCCC(=O)N4CCN(c5cccc(-c6cnc7ccc(N8CCC[C@@H]8c8cccc(F)c8)nn67)n5)CC4)c3C2=O)C(=O)N1 (some centres undefined)
Activity (KM12 [1]): 91%
Activity (KM12 [2]): 22%
Activity (KM12 [3]): 40%

pKd [7]: 7.64
pKd [18]: 8.27
pKd [23]: 9.09
SMILES: OC1CCN(c2cc(-c3cccc(-c4cnc5ccc(N6CCC[C@@H]6c6cccc(F)c6)nn45)n3)ccn2)CC1
Activity (KM12 [1]): 52%
Activity (KM12 [2]): 6%
Activity (KM12 [3]): 16%
pIC50 (KM12 [13]): 7.80

SMILES: O=C1CCC(N2C(=O)c3cccc(NCCC(=O)N4CCN(c5cccc(-c6cnc7ccc(N8CCC[C@@H]8c8cccc(F)c8)nn67)n5)CC4)c3C2=O)C(=O)N1 (some centres undefined)
Activity (KM12 [1]): 65%
Activity (KM12 [2]): 9%
Activity (KM12 [3]): 15%

SMILES: O=C1CCC(N2C(=O)c3cccc(NCCCC(=O)N4CCN(c5cccc(-c6cnc7ccc(N8CCC[C@@H]8c8cccc(F)c8)nn67)n5)CC4)c3C2=O)C(=O)N1 (some centres undefined)
Activity (KM12 [1]): 94%
Activity (KM12 [2]): 12%
Activity (KM12 [3]): 63%

Activity [26]: inactive
pKd [7]: 7.22
pKd [18]: 8.32
pKd [23]: 9.06
SMILES: CN1C(=O)CCC(N2C(=O)c3cccc(NCCOCCC(=O)N4CCN(c5cccc(-c6cnc7ccc(N8CCC[C@@H]8c8cccc(F)c8)nn67)n5)CC4)c3C2=O)C1=O (some centres undefined)
pIC50 (KM12 [13]): 7.55
Activity (KM12 [27]): inactive

SMILES: O=C1CCC(N2C(=O)c3cccc(NCCCCC(=O)N4CCN(c5cccc(-c6cnc7ccc(N8CCC[C@@H]8c8cccc(F)c8)nn67)n5)CC4)c3C2=O)C(=O)N1 (some centres undefined)
Activity (KM12 [1]): 93%
Activity (KM12 [2]): 20%
Activity (KM12 [3]): 69%
